In US4537962A, “Substituted 1,3,4-thiadiazolo[3,2-A]pyrimidines and compositions containing them” (Farmitalia Carlo Erba, S.p.A., priority 1982, dated 1985):

How the values were obtained:
[1] = approximate acute toxicity (LD50) in the mouse; conditions: in vivo, po, per os, single administration of increasing doses, measured on the seventh day after the day of treatment
Excerpt: In view of their high therapeutic index, the compounds of the invention can be used safely in medicine, For example, the approximate acute toxicity (LD50) of the compounds 7-trans-(2-phenyl-ethenyl)-5H-1,3,4-thiadiazolo[3,2-a]pyrimidine-5-one, 2-methyl-7-trans-(2-phenyl-ethenyl)-5H-1,3,4-thiadiazolo[3,2-a]pyrimidine- 5-one, 7-trans-[2-(2,6-dichloro-phenyl)-ethenyl]-5H-1,3,4-thiadiazolo[3,2-a]pyrimidine-5-one, 7-trans-[2-(3-pyridyl)-ethenyl]-5H-1,3,4-thiadiazolo[3,2-a]pyrimidine-5-one, 7-trans-[2-(4-fluoro-phenyl)-ethenyl]-5H-1,3,4-thiadiazolo[3,2-a]pyrimidine-5-one, 2-phenyl-7-trans-[2-(3-pyridyl)-ethenyl]-5H-1,3,4-thiadiazolo[3,2-a]pyrimidine-5-one and 2-(4-methyl-phenyl)-7-trans-[2-(3-pyridyl)-ethenyl]-5H-1,3,4-thiadiazolo[3,2-a]pyrimidine-5-one in the mouse, determined by single administration of increasing doses and measured on the seventh day after the day of treatment, is higher than 800 mg/kg per os. Analogous toxicity data have been found for the other compounds of the invention.

gastric secretion = assay: gastric antisecretory activity in rats by the pylorus ligature technique (method of H. Shay et al.); format: in vivo, Sprague-Dawley male rats; conditions: 4 h; approximate ED50; rat, intraduodenal, four hours after pylorus ligature
Protocol: Gastric antisecretory activity was evaluated in rats by the pylorus ligature technique. Six Sprague-Dawley male rats (110-130 g) were used for each group. Twenty-four hours before the test, the rats were deprived of food but their water supply was maintained. On the day of the operation, the pylorus was ligated under light ether anaesthesia. Each compound was injected intraduodenally (i.d.) at the time of the ligature. Four hours after the ligature the rats were sacrificed, the stomach secretion was collected and centrifuged at 3500 r.p.m. for 10 minutes, and the volume, less sediment, was determined.
The amount of the free hydrochloric acid in the gastrc juice was determined by titration against 0.01N sodium hydroxide to pH 7.0 on the pH-meter.

restraint ulcers = assay: inhibition of restraint ulcers in rats (anti-ulcerogenic activity, method of Bonfils et al.); format: in vivo, Sprague-Dawley male rats; conditions: po; approximate ED50; rat, p.o. one hour before the immobilization; 4 hours immobilization; read-out: Antiulcerogenic activity p.o., ED50
Excerpt: The compounds of the present invention are active on the gastroenteric system, in particular they are endowed with anti-ulcerogenic and gastric anti-secretory activity and are therefore useful in therapy, for example in the prevention and treatment of peptic, e.g. duodenal, gastric and exophageal ulcers and to inhibit gastric acid secretion. The compounds of the invention are also useful for reducing the undesirable gastrointestinal side-effects resulting from systemic administration of anti-inflammatory prostaglandin synthetase inhibitors and may be, therefore, used for this purpose in association with them. The anti-ulcerogenic activity of the compounds of the invention is shown, e.g., by the fact that they are active in the test of the inhibition of restraint ulcers in rats, according to the method of Bonfils et al., (Therapie, 1960, 15, 1096; Jap. J. Pharmac. 1968, 18, 9).
Six Sprague-Dawley male rats (100-120 g) fasted 24 hours were used for the experiment: a square flexible small-mesh wire netting was used for the immobilization and 4 hours after the immobilization the rats were sacrificed, their stomachs were removed and the lesions counted under a dissecting microscope. The tested compounds were administered per os (p.o.) one hour before the immobilization.

## O=c1cc(/C=C/c2ccc(F)cc2)nc2scnn12
[1]
  LD50 at 168 h: > 800 mg/kg

## Cc1ccc(-c2nn3c(=O)cc(/C=C/c4cccnc4)nc3s2)cc1 [2-(4-methyl-phenyl)-7-trans-[2-(3-pyridyl)-ethenyl]-5H-1,3,4-thiadiazolo[3,2-a]pyrimidine-5-one]
[1]
  LD50 at 168 h: > 800 mg/kg
Gastric secretion
  ED50: ~50 mg/kg

## Cc1nn2c(=O)cc(/C=C/c3ccccc3)nc2s1 [2-methyl-7-trans-(2-phenyl-ethenyl)-5H-1,3,4-thiadiazolo[3,2-a]pyrimidine-5-one]
[1]
  LD50 at 168 h: > 800 mg/kg

## O=c1cc(/C=C/c2cccnc2)nc2sc(-c3ccccc3)nn12 [2-phenyl-7-trans-[2-(3-pyridyl)-ethenyl]-5H-1,3,4-thiadiazolo[3,2-a]pyrimidine-5-one]
[1]
  LD50 at 168 h: > 800 mg/kg
Restraint ulcers
  ED50: 3 mg/kg

## O=c1cc(/C=C/c2ccccc2)nc2scnn12 [7-trans-(2-phenyl-ethenyl)-5H-1,3,4-thiadiazolo[3,2-a]pyrimidine-5-one]
[1]
  LD50 at 168 h: > 800 mg/kg

## O=c1cc(/C=C/c2c(Cl)cccc2Cl)nc2scnn12 [7-trans-[2-(2,6-dichloro-phenyl)-ethenyl]-5H-1,3,4-thiadiazolo[3,2-a]pyrimidine-5-one]
[1]
  LD50 at 168 h: > 800 mg/kg

## O=c1cc(/C=C/c2cccnc2)nc2scnn12 [7-trans-[2-(3-pyridyl)-ethenyl]-5H-1,3,4-thiadiazolo[3,2-a]pyrimidine-5-one]
[1]
  LD50 at 168 h: > 800 mg/kg
